Source: patent US5001158A, “Nitrosoureas compounds preparation thereof and utilization thereof in anticancerous” (Centre National de la Recherche Scientifique, priority 1990, dated 1991)

Legend:
Type in all cases: in vivo, mice (male B6 D2 F1 /OLA)
[1] = 50% lethal dose (LD50 acute) in mice; conditions: mouse, in vivo, ip, mortality before the 8th day
Experimental: (§1) Male B6 D2 F1 /OLA mice are inoculated intraperitoneally with 10^5 cells of the leukemia strain L1210 on day 0 and divided into groups. The first is the control group and the others are treated with the drugs at different concentrations on days 1, 5 and 9. The compounds are injected as a suspension in olive oil. The mortality of the animals is observed and the autopsy indicates whether it is due to leukemia or to the toxic action of the products.
(§2) The 50% lethal dose (LD50 acute) is determined by taking into account the mortality which has occurred before the 8th day among the animals treated on day D:1. The survival median of the treated animals (mT) and the control animals (mC) was established and Wilcoxon's non-parametric statistical test was applied. The results are considered positive if the index I [formula] is greater than 125 and the test Is significant at p≤0.05.

leukemia strain L1210 = assay: Antitumoral activity on leukemia L1210 i.p. in mice, unoxidized compounds (ICIG); conditions: for survival rate after 60 days: at different doses; for I indices (in words): i.p., leukemia L1210
Experimental: The oncostatic activity of these nitrosated derivatives was determined at the I.C.I.G. in VILLEJUIF (Department of Prof. MATHE) following a described experimental protocol: M. HAYAT et al , Cancer Chemother. Pharmacol., 1979, 3, 217-221; R. MARAL et al., Eur. J. Med. Chem., submitted for publication.
as §1, §2

mice = assay: 50% lethal dose (LD50 acute) in mice; conditions: i.p.
Experimental: as §1, §2

O=NN(CCCl)C(=O)NCCS [(1), N-[N-(2-Chloroethyl)-N-nitrosocarbamoyl]cysteamine]
LD50 [1]: 19 to 25 mg/kg | % of animals surviving to 60 days (leukemia strain L1210; 5 mg/kg i.p., days 1,5,9): 100% | index I (survival median treated vs control) (leukemia strain L1210; 5 mg/kg i.p., days 1,5,9): .infin. (50% or more of the animals survive to day +60) | % of animals surviving to 60 days (leukemia strain L1210; 10 mg/kg i.p., days 1,5,9): 100% | index I (survival median treated vs control) (leukemia strain L1210; 10 mg/kg i.p., days 1,5,9): .infin. (50% or more of the animals survive to day +60) | % of animals surviving to 60 days (leukemia strain L1210; 12.5 mg/kg i.p., days 1,5,9): 100% | index I (survival median treated vs control) (leukemia strain L1210; 12.5 mg/kg i.p., days 1,5,9): .infin. (50% or more of the animals survive to day +60) | % of animals surviving to 60 days (leukemia strain L1210; 15 mg/kg i.p., day +1): 100% | index I (survival median treated vs control) (leukemia strain L1210; 15 mg/kg i.p., day +1): .infin. (50% or more of the animals survive to day +60) | survival rate after 60 days (leukemia strain L1210): 100% | I indices (in words) (leukemia strain L1210): at infinity

CSCCNC(=O)N(CCCl)N=O [(3), S-methyl-N-[N-(2-chloroethyl)-N-nitrosocarbamoyl] cysteamine]
LD50 [1]: 19 to 25 mg/kg | index I (survival median treated vs control) (leukemia strain L1210; 5 mg/kg i.p., days 1,5,9): .infin. (50% or more of the animals survive to day +60) | % of animals surviving to 60 days (leukemia strain L1210; 12.5 mg/kg i.p., days 1,5,9): 100% | index I (survival median treated vs control) (leukemia strain L1210; 12.5 mg/kg i.p., days 1,5,9): .infin. (50% or more of the animals survive to day +60) | % of animals surviving to 60 days (leukemia strain L1210; 15 mg/kg i.p., days 1,5,9): 87% | survival rate after 60 days (leukemia strain L1210): 100% | I indices (in words) (leukemia strain L1210): at infinity

CC(=O)SCCNC(=O)N(CCCl)N=O [(5), S-acetyl-N-[N-(2-chloroethyl)-N-nitrosocarbamoyl] cysteamine]
LD50 [1]: 19 to 25 mg/kg | % of animals surviving to 60 days (leukemia strain L1210; 10 mg/kg i.p., days 1,5,9): 14% | index I (survival median treated vs control) (leukemia strain L1210; 10 mg/kg i.p., days 1,5,9): .infin. (50% or more of the animals survive to day +60) | % of animals surviving to 60 days (leukemia strain L1210; 12.5 mg/kg i.p., days 1,5,9): 100% | index I (survival median treated vs control) (leukemia strain L1210; 12.5 mg/kg i.p., days 1,5,9): .infin. (50% or more of the animals survive to day +60) | % of animals surviving to 60 days (leukemia strain L1210; 15 mg/kg i.p., days 1,5,9): 80% | % of animals surviving to 60 days (leukemia strain L1210; 20 mg/kg i.p., days 1,5,9): 25% | survival rate after 60 days (leukemia strain L1210): 100% | I indices (in words) (leukemia strain L1210): at infinity

O=NN(CCCl)C(=O)NCCSC(c1ccccc1)(c1ccccc1)c1ccccc1 [(9), S-Trityl-N-[N-(2-chloroethyl)-N-nitrosocarbamoyl]cysteamine]
toxicity (in words) (mice): not toxic | LD50 [1]: > 625 mg/kg
